System: human umbilical vein endothelial cells (HUVEC)
Experiment: HUVEC proliferation quantified by BrdU incorporation
Assay type: cell-based
Conditions: HUVEC; for IC50: read-out: IC50 HUVEC
Protocol: Determination of the Proliferation Inhibition by Inhibitors of Methionine Aminopeptidase 2 in the BrdU Proliferation Test (Cellular Assay)
After detachment of the cells by means of trypsin/EDTA, the number of living cells is determined, and the cells are sown in a density of 1000 cells per cavity in a total volume of 175 μl (cavities are coated in advance either with supplemented culture medium for 1-2 hours at 37° C. or with 1.5% gelatine for 0.5-2 hours at 37° C.). After cultivation for 24 hours, the test substances are added in various concentrations (for example final concentrations 30 μM to 0.03 nM in 10-fold dilution steps) and a volume of 25 μl. The DMSO concentration is kept constant at 0.3%. […] To this end, the cells are treated with a fixative for 30 min at room temperature and subsequently incubated with a peroxidase-labelled anti-BrdU antibody (diluted 1:100 in antibody dilution buffer) for 60 min at room temperature. […] The colour development is stopped after 15 min by addition of 25 μl of a 1M sulfuric acid solution. […] The controls used are cavities containing DMSO-treated cells (100% control) or empty cavities (blank value).
HUVEC Proliferation Quantified by BrdU Incorporation
HUVEC Means Human Umbilical Vein Endothelial Cells
HUVEC proliferation is measured after a 5 day incubation period using incorporation of BrdU as a measure of cell cycle activity. Cells are incubated in the presence or absence of test substances. During the last 18 to 24 hours of the incubation period BrdU is added to the medium. BrdU is incorporated into the DNA as the cells progress through S-phase (DNA synthesis) of the cell cycle. The cells are fixed and the amount of BrdU incorporated can be quantified using a commercial ELISA for detection of BrdU.
HUVEC are routinely cultured in EGM MV medium and used between passages 3 and 8.
All substances are run in triplicate.
Reference compounds are run in every assay.
Data is analyzed using the Assay Explorer program. Briefly, the blank is subtracted from all values, the triplicates are averaged and normalized to the untreated. EC50 is determined from a 4-parameter general sigmoidal curve (Hill fit y=(s0−slnf)/(1+(x/AC50)^nHill)+slnf) in Assay Explorer, Symyx). The processed data (EC50 or % Effect if no EC50 if reached, Efficacy) is uploaded directly from Assay Explorer to the MSRDB.

SMILES | IC50 [nM] | EC50 (reference compounds run in every assay, expected value, read-out: expected value (EC50) of reference compound) [nM]
NC(=O)CC[C@H](NC(=O)c1cc2cc(N3CC[C@](O)(C(=O)NCc4cc(F)cc(Cl)c4)C3=O)ccc2[nH]1)C(=O)O [Compound A39] | 3100 | –
NCCCNC(=O)c1cc2cc(N3CC[C@](O)(C(=O)NCc4cc(F)cc(Cl)c4)C3=O)ccc2[nH]1 [Compound A40] | 200 | –
O=C(NCc1cc(F)cc(Cl)c1)[C@@]1(O)CCN(c2ccc3c(c2)COB3O)C1=O [Compound A41] | 260 | –
O=C(NCc1cc(F)cc(Cl)c1)C1(O)CCN(c2ccc3c(c2)CS(=O)(=O)N3)C1=O (centres unmarked) [Compound A42] | 1300 | –
COc1ccc(CN2c3ccc(N4CCC(O)(C(=O)NCc5cc(F)cc(Cl)c5)C4=O)cc3CS2(=O)=O)cc1 (centres unmarked) [Compound A43] | 820 | –
CC(C)C(NC(=O)CN1CCC(O)(C(=O)NCc2cc(F)cc(Cl)c2)C1=O)C(=O)N(C)C (centres unmarked) [Compound A46] | 45 | –
O=C(NCc1cc(F)cc(Cl)c1)C1(O)CCN(c2ccc3c(c2)CC(C2CC2)N3)C1=O (centres unmarked) [Compound A47] | 40 | –
NCCCNC(=O)[C@H](CCC(N)=O)NC(=O)c1cc2cc(N3CC[C@](O)(C(=O)NCc4cc(F)cc(Cl)c4)C3=O)ccc2[nH]1 [Compound A50] | 3500 | –
CN(C)C(=O)CNC(=O)[C@H](CCC(N)=O)NC(=O)c1cc2cc(N3CC[C@](O)(C(=O)NCc4cc(F)cc(Cl)c4)C3=O)ccc2[nH]1 [Compound A51] | 8100 | –
NC(=O)CC[C@H](NC(=O)c1cc2cc(N3CC[C@](O)(C(=O)NCc4cc(F)cc(Cl)c4)C3=O)ccc2[nH]1)C(=O)N[C@@H](Cc1ccccc1)C(N)=O [Compound A52] | 4400 | –
O=C(NCc1cc(F)cc(Cl)c1)[C@@]1(O)CCN(c2cnc3[nH]cc(F)c3c2)C1=O [Compound A53] | 39 | –
O=C(NCc1cc(F)cc(Cl)c1)C1(O)CCN(c2ccc(C(F)F)cc2)C1=O (centres unmarked) [Compound A60] | 1800 | –
O=C(NCc1cc(F)cc(Cl)c1)[C@@]1(O)CCN(c2cnc3[nH]c(Cl)c(Cl)c3c2)C1=O [Compound A62] | 180 | –
CS(=N)(=O)c1ccc(N2CCC(O)(C(=O)NCc3cc(F)cc(Cl)c3)C2=O)cc1 (centres unmarked) [Compound A64, 3-hydroxy-1-(4-methanesulfoximinoyl-phenyl)-2-oxo-pyrrolidine-3-carboxylic acid 3-chloro-5-fluoro-benzylamide] | 6100 | –
O=C(NCc1cc(F)cc(Cl)c1)[C@@]1(O)CCN(c2ccc(OC(F)(F)F)cc2)C1=O [Compound A65] | 1500 | –
O=C1Cc2cc(N3CC[C@](O)(C(=O)NCc4cc(F)cc(F)c4)C3=O)ccc2N1 [Compound A66] | 76 | –

SMILES | IC50 [nM] | EC50 (reference compounds run in every assay, expected value, read-out: expected value (EC50) of reference compound) [nM]
O=C(NCc1cc(F)cc(Cl)c1)[C@@]1(O)CCN(c2cccc(OC(F)(F)F)c2)C1=O [Compound A67] | 290 | –
O=CNCCCCNC(=O)c1cc2cc(N3CC[C@](O)(C(=O)NCc4cc(F)cc(Cl)c4)C3=O)ccc2[nH]1 [Compound A68] | 110 | –
C[S@@](=N)(=O)c1ccc(N2CC[C@](O)(C(=O)NCc3cc(F)cc(Cl)c3)C2=O)cc1 [Compound A69] | 300 | –
C[S@](=N)(=O)c1ccc(N2CC[C@](O)(C(=O)NCc3cc(F)cc(Cl)c3)C2=O)cc1 [Compound A70] | 700 | –
CS(=N)(=O)c1cccc(N2CCC(O)(C(=O)NCc3cc(F)cc(Cl)c3)C2=O)c1 (centres unmarked) [Compound A71] | 1400 | –
O=C(NCc1cc(F)cc(Cl)c1)C1(O)CCN(c2ccc3c(c2)CCOB3O)C1=O (centres unmarked) [Compound A74] | 14 | –
O=C(NCc1cc(F)cc(F)c1)[C@@]1(O)CCN(c2ccc3[nH]ncc3c2)C1=O [Compound A75, (S)-3-Hydroxy-1-(1H-indazol-5-yl)-2-oxo-pyrrolidine-3-carboxylic acid 3,5-difluoro-benzylamide] | 42 | –
COc1ccc(Cn2ccc3cc(N4CC[C@](O)(C(=O)NCc5cc(F)cc(F)c5)C4=O)cnc32)cc1 [Compound A76] | 260 | –
O=C(NCc1cc(F)cc(F)c1)[C@@]1(O)CCN(c2cnc3[nH]ccc3c2)C1=O [Compound A78] | 35 | –
O=C(NCc1cc(F)cc(F)c1)[C@@]1(O)CCN(c2cnc3[nH]cc(Cl)c3c2)C1=O [Compound A79] | 6.5 | –
C[S@](=N)(=O)c1cccc(N2CC[C@](O)(C(=O)NCc3cc(F)cc(Cl)c3)C2=O)c1 [Compound A81] | 540 | –
C[S@@](=N)(=O)c1cccc(N2CC[C@](O)(C(=O)NCc3cc(F)cc(Cl)c3)C2=O)c1 [Compound A82] | 310 | –
NC(=O)c1ccc2cc(N3CCC(O)(C(=O)NCc4cc(F)cc(Cl)c4)C3=O)ccc2n1 (centres unmarked) [Compound A83] | 500 | –
O=C(NCc1cc(F)cc(Cl)c1)[C@@]1(O)C(=O)N(c2ccccc2)C[C@@H]1O [Compound A87] | 2300 | –
O=C(NCc1cc(F)cc(F)c1)[C@@]1(O)CCN(c2cnc3[nH]cc(F)c3c2)C1=O [Compound A89] | 32 | –
CO[C@@H]1[C@H](OC(=O)NC(=O)CCl)CC[C@]2(CO2)[C@H]1[C@@]1(C)O[C@@H]1CC=C(C)C [MSC1902850A, TNP-470, reference compound] | – | 0.8

— patent US10005756B2, “Pyrrolidinone derivatives as MetAP-2 inhibitors” (Merck Patent GmbH, priority 2014, dated 2018)
